Data as given in patent publication US10253032B2, “Spiro-lactam NMDA receptor modulators and uses thereof” (Aptinyx Inc., priority 2013, dated 2019).

Tests used:
[1] = molecular target: T1, NMDA receptor glycine site, rat cortical membranes (Rattus norvegicus, UniProt P35439); assay: [3H] MK-801 binding assay (MK-801 Glycine Site Binding Assay: Rat, Cortex); settings: potentiation of [3H]MK-801 binding (5 nM), 50 μM glutamate, 15 min @25° C.
T1 construct: well washed rat cortical membranes (200 μg); from tissue; host or cells: rat cerebral cortex membranes
Procedure: Assays were conducted as described in Moskal et al. (Moskal, J. R., Kuo, A. G., Weiss, C., Wood, P. L., O'Connor Hanson, A., Kelso, S., Harris, R. B., Disterhoft, S. F., 2005. GLYX-13: a monoclonal antibody-derived peptide that acts as an N-methyl-D-aspartate receptor modulator. Neuropharmacology. 49, 1077-87) The potentiation of [^3H]MK-801 binding (5 nM; 22.5 Ci/mmol) to well washed rat cortical membranes (200 μg) was measured under non-equilibrium conditions (15 min @25° C.) in the presence of increasing concentrations of test compounds and 50 μM glutamate. Zero levels were determined in the absence of any glycine ligand and in the presence of 30 μM 5.7 DCKA. Maximal stimulation was measured in the presence of 1 mM glycine, and 50 μM glutamate was present in all samples. The facilitation of [^3H]MK-801 binding by tests compounds was calculated by using a 3 parameter log agonist vs. response equation (Graph pad Prism, USA) and potency (EC50, expressed in pM) and maximal activity (% maximal stimulation) were calculated for the test compound.

LTP = LTP (long-term potentiation) augmentation; settings: LTP Concentration 1 uM

- EC50 [1]: 2.43 nM
Structure (SMILES): NC(=O)C(CO)N1CCCC12CNC2=O (centres unmarked) [Compound X]
- LTP: LTP Augmentation (LTP): 75%
